Measurements from patent US20100298141A1, “SUBSTITUTED PYRIDINE N-OXIDE HERBICIDES” (E. I. DU PONT DE NEMOURS AND COMPANY, priority 2007, published 2010).

Tests used:
yellow nutsedge = experiment: Test C pre-/postemergence test; format: in vivo, Cyperus esculentus; conditions: for Plant response rating, Nutsedge, Yellow: 31 g ai/ha, scale 0 to 100 (0 no effect, 100 complete control)
Procedure, shortened: (§1)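 Seeds were planted and treated preemergence with test chemical in a non-phytotoxic solvent mixture containing surfactant. Postemergence applications of the same formulation went onto plants 2 to 18 cm tall (1- to 4-leaf stage). A dash marks no test result.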

common ragweed = experiment: Test C pre-/postemergence test; format: in vivo, Ambrosia elation; conditions: for Plant response rating, Ragweed: 31 g ai/ha, scale 0 to 100 (0 no effect, 100 complete control)
Procedure, shortened: as §1

umbrella sedge = experiment: Test C flooded paddy test; format: in vivo, Cyperus difformis; conditions: Flood
Procedure, shortened: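 Visual injury ratings against untreated controls, taken 13 to 15 days after compound was added to paddy water standing 3 cm above the soil.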

woolly cupgrass = experiment: Test C pre-/postemergence test; format: in vivo, Eriochloa villosa; conditions: for Plant response rating, Cupgrass, Woolly: 31 g ai/ha, scale 0 to 100 (0 no effect, 100 complete control)
Procedure, shortened: as §1

soybean = experiment: Test C pre-/postemergence test; format: in vivo, Glycine max
Procedure, shortened: as §1

johnsongrass = experiment: Test C pre-/postemergence test; format: in vivo, Sorghum halepense; conditions: for Plant response rating, Johnsongrass: 31 g ai/ha, scale 0 to 100 (0 no effect, 100 complete control)
Procedure, shortened: as §1

giant foxtail [1] = experiment: Test A pre-/postemergence greenhouse test; format: in vivo, Setaria faberi; conditions: for Plant response rating, Foxtail, Giant: 0 to 100 scale where 0 is no effect and 100 is complete control; for Foxtail, Giant plant response rating: 0 to 100 scale
Procedure, shortened: (§2)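 Pre: directed soil spray on seeded loam/sand. Post: foliar spray, plants 2–10 cm, 1–2 leaf stage, applied concurrently. Vehicle: non-phytotoxic solvent + surfactant. Greenhouse ~10 d; visual injury rating vs untreated controls.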

Goosegrass = experiment: Test C pre-/postemergence test; format: in vivo, Eleusin indica; conditions: for Plant response rating, Goosegrass: 31 g ai/ha, scale 0 to 100 (0 no effect, 100 complete control)
Procedure, shortened: as §1

lambsquarters = experiment: Test C pre-/postemergence test; format: in vivo, Chenopodium album; conditions: for Plant response rating, Lambsquarters: 31 g ai/ha, scale 0 to 100 (0 no effect, 100 complete control)
Procedure, shortened: as §1

morningglory [2] = experiment: Test C pre-/postemergence test; format: in vivo, Ipomoea coccinea; conditions: for Plant response rating, Morningglory: 31 g ai/ha, scale 0 to 100 (0 no effect, 100 complete control)
Procedure, shortened: as §1

corn = experiment: Test C pre-/postemergence test; format: in vivo, Zea mays; conditions: for Plant response rating, Corn: 31 g ai/ha, scale 0 to 100 (0 no effect, 100 complete control)
Procedure, shortened: as §1

crabgrass = experiment: Test A pre-/postemergence greenhouse test; format: in vivo, Digitaria sanguinalis; conditions: for Plant response rating, Crabgrass, Large: 0 to 100 scale where 0 is no effect and 100 is complete control; for Crabgrass, Large plant response rating: 0 to 100 scale
Procedure, shortened: as §2

morningglory [3] = experiment: Test A pre-/postemergence greenhouse test; format: in vivo, Ipomoea spp.; conditions: for Plant response rating, Morningglory: 0 to 100 scale where 0 is no effect and 100 is complete control; for Morningglory plant response rating: 0 to 100 scale
Procedure, shortened: as §2

downy brome = experiment: Test C pre-/postemergence test; format: in vivo, Bromus tectorum
Procedure, shortened: as §1

wheat = experiment: Test A pre-/postemergence greenhouse test; format: in vivo, Triticum aestivum; conditions: for Plant response rating, Wheat: 0 to 100 scale where 0 is no effect and 100 is complete control; for Wheat plant response rating: 0 to 100 scale
Procedure, shortened: as §2

giant foxtail [4] = experiment: Test C pre-/postemergence test; format: in vivo, Setaria faberii; conditions: for Plant response rating, Foxtail, Giant: 31 g ai/ha, scale 0 to 100 (0 no effect, 100 complete control)
Procedure, shortened: as §1

cocklebur = experiment: Test C pre-/postemergence test; format: in vivo, Xanthium strumarium; conditions: for Plant response rating, Cocklebur: 31 g ai/ha, scale 0 to 100 (0 no effect, 100 complete control)
Procedure, shortened: as §1

[5] = 62 g ai/ha, Preemergence, scale 0 to 100
[6] = 125 g ai/ha, preemergence, scale 0 (no effect) to 100 (complete control)
[7] = preemergence, 250 g ai/ha, scale 0 (no effect) to 100 (complete control)
[8] = 250 g ai/ha, scale 0 to 100, 0 no effect, 100 complete control, 13 to 15 days
[9] = Postemergence, 500 g ai/ha, 0 is no effect, 100 is complete control
[10] = Preemergence, 125 g ai/ha, 0 no effect, 100 complete control
[11] = Preemergence, 31 g ai/ha, scale 0 to 100 (0 no effect, 100 complete control)
[12] = Postemergence, 125 g ai/ha, 0 is no effect, 100 is complete control
[13] = preemergence, 125 g ai/ha, scale 0 (no effect) to 100 (complete control)

## Cc1cc([S+]([O-])Cc2c(C(F)(F)F)nn(C)c2OCC(F)(F)F)[n+]([O-])cc1Cl (centres unmarked) [Compound 70]
Yellow nutsedge; [5]
  Nutsedge, Yellow plant response rating: 65
Yellow nutsedge; [6]
  Nutsedge, Yellow plant response rating: 65
Yellow nutsedge; Preemergence
  Plant response rating, Nutsedge, Yellow: 60
Yellow nutsedge; [7]
  Nutsedge, Yellow plant response rating: 95
Common ragweed; [5]
  Ragweed plant response rating: 80
Common ragweed; [6]
  Ragweed plant response rating: 80
Common ragweed; Preemergence
  Plant response rating, Ragweed: 0
Common ragweed; [7]
  Ragweed plant response rating: 100
Umbrella sedge; 62 g ai/ha, scale 0 to 100 (0 no effect, 100 complete control)
  Plant response rating, Sedge, Umbrella: 80
Umbrella sedge; [8]
  Plant response rating, Sedge, Umbrella: 100
Woolly cupgrass; [5]
  Cupgrass, Woolly plant response rating: 98
Woolly cupgrass; [6]
  Cupgrass, Woolly plant response rating: 100
Woolly cupgrass; Preemergence
  Plant response rating, Cupgrass, Woolly: 95
Woolly cupgrass; [7]
  Cupgrass, Woolly plant response rating: 100
soybean; [5]
  Soybean plant response rating: 30
soybean; [6]
  Soybean plant response rating: 80
soybean; [7]
  Soybean plant response rating: 85
johnsongrass; [5]
  Johnsongrass plant response rating: 100
johnsongrass; [6]
  Johnsongrass plant response rating: 100
johnsongrass; Preemergence
  Plant response rating, Johnsongrass: 70
johnsongrass; [7]
  Johnsongrass plant response rating: 100
Giant foxtail [1]; Postemergence, 125 g ai/ha
  Plant response rating, Foxtail, Giant: 60
Giant foxtail [1]; [9]
  Foxtail, Giant plant response rating: 90
Giant foxtail [1]; [10]
  Foxtail, Giant plant response rating: 100
Giant foxtail [1]; Preemergence, 500 g ai/ha
  Plant response rating, Foxtail, Giant: 100
Goosegrass; [5]
  Goosegrass plant response rating: 100
Goosegrass; [6]
  Goosegrass plant response rating: 100
Goosegrass; Preemergence
  Plant response rating, Goosegrass: 100
Goosegrass; [7]
  Goosegrass plant response rating: 100
lambsquarters; [5]
  Lambsquarters plant response rating: 100
lambsquarters; [6]
  Lambsquarters plant response rating: 100
lambsquarters; Preemergence
  Plant response rating, Lambsquarters: 100
lambsquarters; [7]
  Lambsquarters plant response rating: 100
Morningglory [2]; [5]
  Morningglory plant response rating: 80
Morningglory [2]; [6]
  Morningglory plant response rating: 100
Morningglory [2]; Preemergence
  Plant response rating, Morningglory: 0
Morningglory [2]; [7]
  Morningglory plant response rating: 100
corn; [5]
  Corn plant response rating: 95
corn; [6]
  Corn plant response rating: 98
corn; Preemergence
  Plant response rating, Corn: 50
corn; [7]
  Corn plant response rating: 100
crabgrass; Postemergence, 125 g ai/ha
  Plant response rating, Crabgrass, Large: 50
crabgrass; [9]
  Crabgrass, Large plant response rating: 80
crabgrass; [10]
  Crabgrass, Large plant response rating: 90
crabgrass; Preemergence, 500 g ai/ha
  Plant response rating, Crabgrass, Large: 100
Morningglory [3]; Postemergence, 125 g ai/ha
  Plant response rating, Morningglory: 30
Morningglory [3]; [9]
  Morningglory plant response rating: 70
Morningglory [3]; [10]
  Morningglory plant response rating: 30
Morningglory [3]; Preemergence, 500 g ai/ha
  Plant response rating, Morningglory: 100
Downy brome; [5]
  Bromegrass, Downy plant response rating: 80
Downy brome; [6]
  Bromegrass, Downy plant response rating: 100
Downy brome; [7]
  Bromegrass, Downy plant response rating: 100
wheat; Postemergence, 125 g ai/ha
  Plant response rating, Wheat: 70
wheat; [9]
  Wheat plant response rating: 70
wheat; [10]
  Wheat plant response rating: 50
wheat; Preemergence, 500 g ai/ha
  Plant response rating, Wheat: 90
Giant foxtail [4]; [5]
  Foxtail, Giant plant response rating: 100
Giant foxtail [4]; Preemergence
  Plant response rating, Foxtail, Giant: 90
Giant foxtail [4]; [7]
  Foxtail, Giant plant response rating: 100
cocklebur; [5]
  Cocklebur plant response rating: 0
cocklebur; [6]
  Cocklebur plant response rating: 0
cocklebur; Preemergence
  Plant response rating, Cocklebur: 0
cocklebur; [7]
  Cocklebur plant response rating: 0

## Cn1nc(C(F)(F)F)c(C[S+]([O-])c2cc(C(C)(C)C)cc[n+]2[O-])c1OC(F)F (racemic) [Compound 24]
Yellow nutsedge; [5]
  Nutsedge, Yellow plant response rating: 70
Yellow nutsedge; Preemergence
  Plant response rating, Nutsedge, Yellow: 0
Common ragweed; [5]
  Ragweed plant response rating: 70
Common ragweed; Preemergence
  Plant response rating, Ragweed: 0
Umbrella sedge; 31 g ai/ha, scale 0 to 100 (0 no effect, 100 complete control)
  Plant response rating, Sedge, Umbrella: 60
Umbrella sedge; 62 g ai/ha, scale 0 to 100, 0 no effect, 100 complete control, 13 to 15 days
  Plant response rating, Sedge, Umbrella: 85
Umbrella sedge; 125 g ai/ha, scale 0 to 100, 0 no effect, 100 complete control, 13 to 15 days
  Plant response rating, Sedge, Umbrella: 95
Umbrella sedge; [8]
  Plant response rating, Sedge, Umbrella: 95
Woolly cupgrass; [5]
  Cupgrass, Woolly plant response rating: 60
Woolly cupgrass; Preemergence
  Plant response rating, Cupgrass, Woolly: 40
Woolly cupgrass; Preemergence, 250 g ai/ha
  Plant response rating (0 to 100), Cupgrass, Woolly: 100
soybean; [5]
  Soybean plant response rating: 85
soybean; [11]
  Plant response rating, Soybean: 0
johnsongrass; [5]
  Johnsongrass plant response rating: 90
johnsongrass; Preemergence
  Plant response rating, Johnsongrass: 50
johnsongrass; Preemergence, 250 g ai/ha
  Plant response rating (0 to 100), Johnsongrass: 100
Giant foxtail [1]; [12]
  Foxtail, Giant plant response rating: 30
Giant foxtail [1]; [9]
  Foxtail, Giant plant response rating: 70
Giant foxtail [1]; [10]
  Foxtail, Giant plant response rating: 100
Giant foxtail [1]; Preemergence, 500 g ai/ha
  Plant response rating, Foxtail, Giant: 100
Goosegrass; [5]
  Goosegrass plant response rating: 100
Goosegrass; Preemergence
  Plant response rating, Goosegrass: 85
Goosegrass; Preemergence, 250 g ai/ha
  Plant response rating (0 to 100), Goosegrass: 100
lambsquarters; [5]
  Lambsquarters plant response rating: 100
lambsquarters; Preemergence
  Plant response rating, Lambsquarters: 85
Morningglory [2]; [5]
  Morningglory plant response rating: 80
Morningglory [2]; Preemergence
  Plant response rating, Morningglory: 70
corn; [5]
  Corn plant response rating: 50
corn; Preemergence
  Plant response rating, Corn: 0
corn; Preemergence, 250 g ai/ha
  Plant response rating (0 to 100), Corn: 90
corn; [13]
  Corn plant response rating: 90
crabgrass; [12]
  Crabgrass, Large plant response rating: 0
crabgrass; [9]
  Crabgrass, Large plant response rating: 60
crabgrass; [10]
  Crabgrass, Large plant response rating: 90
crabgrass; Preemergence, 500 g ai/ha
  Plant response rating, Crabgrass, Large: 100
Morningglory [3]; [12]
  Morningglory plant response rating: 40
Morningglory [3]; [9]
  Morningglory plant response rating: 90
Morningglory [3]; [10]
  Morningglory plant response rating: 70
Morningglory [3]; Preemergence, 500 g ai/ha
  Plant response rating, Morningglory: 90
Downy brome; [5]
  Bromegrass, Downy plant response rating: 50
Downy brome; [11]
  Plant response rating, Bromegrass, Downy: 10
Downy brome; Preemergence, 250 g ai/ha
  Plant response rating (0 to 100), Bromegrass, Downy: 65
Downy brome; [13]
  Bromegrass, Downy plant response rating: 50
wheat; [12]
  Wheat plant response rating: 0
wheat; [9]
  Wheat plant response rating: 30
wheat; [10]
  Wheat plant response rating: 50
wheat; Preemergence, 500 g ai/ha
  Plant response rating, Wheat: 90
Giant foxtail [4]; [5]
  Foxtail, Giant plant response rating: 90
Giant foxtail [4]; Preemergence
  Plant response rating, Foxtail, Giant: 70
Giant foxtail [4]; Preemergence, 250 g ai/ha
  Plant response rating (0 to 100), Foxtail, Giant: 100
cocklebur; [5]
  Cocklebur plant response rating: 0
cocklebur; Preemergence
  Plant response rating, Cocklebur: 0
cocklebur; [13]
  Cocklebur plant response rating: 0
